Reference: PMC6522510 (Nature Communications, 2019)

Assays:
Parameters in all cases: species or system AML cell lines (8); Primary HTS, single concentration about 10 uM, Cell Titer Glo viability; log10 luminescence, per cent inhibition relative to cycloheximide control
Conditions in all cases: 72 h, relative to cycloheximide control, log10 luminescence; inhibitor
[1] = tested on: CHRF288-11
[2] = tested on: CMK
[3] = tested on: CMS
[4] = tested on: M07e
[5] = tested on: ML-2
[6] = tested on: MOLM-13
[7] = tested on: MV4-11
[8] = tested on: U937

Compound	CHRF288-11 %inh [1]	CMK %inh [2]	CMS %inh [3]	M07e %inh [4]	ML-2 %inh [5]	MOLM-13 %inh [6]	MV4-11 %inh [7]	U937 %inh [8]
COc1ccc(COc2ccc(Cc3cnc(N)nc3N)cc2OC)cc1 [SJ000573290-1, U22490/41/5 | GW2580 | CFMS RECEPTOR TYROSINE KINASE INHIBITOR | CSF-1 RECEPTOR INHIBITOR | GW-2580 | GW2580]	2.429%	9.776%	-2.221%	0.1702%	2.578%	5.043%	1.548%	5.457%
CCS(=O)(=O)c1ccc(OC)c(Nc2ncc(-c3ccccc3Cl)o2)c1 [SJ000573291-1, U15747/47/1]	-4.64%	-1.56%	-1.399%	-1.838%	-1.239%	-0.8597%	15.16%	1.267%
COc1cc2ncn(-c3cc(OCc4ccccc4C(F)(F)F)c(C(C)=O)s3)c2cc1OC [SJ000573292-1, U22436/134/1]	-3.203%	-1.073%	0.7881%	-3.084%	-2.426%	-1.507%	-4.181%	-1.322%
Cc1cccc(-c2n[nH]cc2-c2ccc3ncccc3n2)n1 [SJ000573293-1, FFJG/252/112/1 | REPSOX]	4.75%	1.842%	2.179%	-1.053%	2.229%	-2.402%	1.439%	6.099%
Nc1nc(-c2ccc3c(c2)C(=Cc2cc(Br)c(O)c(Br)c2)C(=O)N3)cs1 [SJ000573294-1, U11298/118/1]	13.11%	-5.127%	1.564%	2.045%	0.7137%	-2.176%	-2.964%	-1.497%
COc1cc2ncn(-c3cc(OCc4ccccc4S(C)(=O)=O)c(C#N)s3)c2cc1OC [SJ000573295-1, U24235/171/40 | IKK-3 INHIBITOR IX | CAY10576]	3.431%	-4.233%	-0.09194%	3.197%	2.593%	-1.258%	0.8968%	1.496%
COc1ccc(-c2oc3ncnc(N)c3c2-c2ccc(NC(=O)Nc3cc(C(F)(F)F)ccc3F)cc2)cc1 [SJ000573296-1, T299/60/1]	-2.7%	1.218%	0.08626%	-1.472%	0.8185%	23.97%	5.923%	-2.62%
CCCN1CCC(Oc2cc(Nc3nc(Nc4cccc(F)c4C(N)=O)c4cc[nH]c4n3)c(OC)cc2Cl)CC1 [SJ000573297-1, U23772/200/1]	4.97%	2.381%	-0.1818%	3.715%	2.245%	2.944%	-2.06%	0.7849%
COc1cc(N2CCN(C(C)C)CC2)ccc1Nc1nc(Nc2ccc(F)cc2C(N)=O)c2cc[nH]c2n1 [SJ000573298-1, U22490/47/4]	127%	61.83%	47.53%	44.9%	34.55%	113.4%	68.67%	43.61%
COC(=O)Nc1nc2cc(Oc3cccc(NC(=O)Nc4cc(C(F)(F)F)ccc4F)c3)ccc2[nH]1 [SJ000573299-1, T261/2/3]	-6.517%	4.931%	-1.053%	-5.089%	-3.985%	2.873%	1.052%	-3.556%
